Reference: patent US20250320184A1 (SIRONAX LTD., priority 2022, published 2025)

What follows are compounds tested against T1, SARM1 (50-724) (Homo sapiens, UniProt Q6SZW1) (assay: biochemical).
T1 sequence (Q6SZW1 50-724): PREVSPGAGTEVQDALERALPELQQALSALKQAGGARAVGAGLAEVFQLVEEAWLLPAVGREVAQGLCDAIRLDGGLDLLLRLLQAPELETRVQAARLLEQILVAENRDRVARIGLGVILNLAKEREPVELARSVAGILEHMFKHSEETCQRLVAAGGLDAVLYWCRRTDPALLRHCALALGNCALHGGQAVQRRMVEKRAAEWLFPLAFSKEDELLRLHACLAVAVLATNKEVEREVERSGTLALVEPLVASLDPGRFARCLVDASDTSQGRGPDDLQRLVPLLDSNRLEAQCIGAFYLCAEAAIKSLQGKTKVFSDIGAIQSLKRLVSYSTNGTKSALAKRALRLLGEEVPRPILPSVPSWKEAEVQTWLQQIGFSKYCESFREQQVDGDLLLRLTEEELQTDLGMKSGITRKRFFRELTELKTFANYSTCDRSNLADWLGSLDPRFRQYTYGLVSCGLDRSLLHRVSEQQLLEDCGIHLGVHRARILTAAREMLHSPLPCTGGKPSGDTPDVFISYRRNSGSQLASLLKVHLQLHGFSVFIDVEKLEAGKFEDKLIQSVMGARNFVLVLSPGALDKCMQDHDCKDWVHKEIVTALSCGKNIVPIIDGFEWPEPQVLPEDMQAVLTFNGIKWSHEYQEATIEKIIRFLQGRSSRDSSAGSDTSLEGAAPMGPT
Protocol: An enzymatic assay was performed in a 384-well plate using Dulbecco's phosphate-buffered saline (PBS) as the reaction buffer. […] The reaction was initiated by adding a mixture of 200 μM nicotinamide mononucleotide (NMN) as activator and 100 μM NAD^+ as substrate. After 1 h of incubation at room temperature, the reaction was terminated with 10 times volume of 70% acetonitrile, then centrifuged at 3800 rpm for 10 min.

Row | SMILES | IC50 [nM]
1 | C=CCCC(Nc1ccc2c(c1)C(=O)NCC2)c1cc(C)cc(F)c1 (racemic) [Example 145, 7-((1-(3-fluoro-5-methylphenyl)pent-4-en-1-yl)amino)-3,4-dihydroisoquinolin-1(2H)-one] | 500 to 1000
2 | CC(Nc1ccc2cc[nH]c(=O)c2c1)c1nn(C)c(C(F)F)c1Cl (racemic) [Compound 325, 7-((1-(4-chloro-5-(difluoromethyl)-1-methyl-1H-pyazol-3-yl)ethyl)amino)isoquinolin-1(2H)-one] | < 100
3 | Cc1nc(C(C)Nc2ccc3cc[nH]c(=O)c3c2)sc1Cl (racemic) [Compound 207, 7-((1-(5-chloro-4-methylthiazol-2-yl)ethyl)amino)isoquinolin-1(2H)-one] | < 100
4 | Cc1n[nH]c(=O)c2cc(N[C@@H](C)c3c(Cl)ccc(F)c3Cl)ccc12 (single isomer, unassigned) [Example 237] | < 100
5 | O=c1[nH]ccc2ccc(NS(=O)(=O)c3c(Cl)ccc(Cl)c3Cl)cc12 [Compound 68, 2,3,6-trichloro-N-(1-oxo-1,2-dihydroisoquinolin-7-yl)benzenesulfonamide] | < 100
6 | Cc1cc(F)cc(S(=O)(=O)Nc2ccc3c(c2)C(=O)NCC3)c1 [Example 15A, 3-fluoro-5-methyl-N-(1-oxo-1,2,3,4-tetrahydroisoquinolin-7-yl)benzenesulfonamide] | > 1000
7 | O=C1NCCc2ccc(NS(=O)(=O)c3ccc(F)cc3F)cc21 [Example 14A, 2,4-difluoro-N-(1-oxo-1,2,3,4-tetrahydroisoquinolin-7-yl)benzenesulfonamide] | > 1000
8 | CC(Nc1ccc2c(c1)c(C(N)=O)nn2C)c1nc(Cl)c(Cl)s1 (racemic) [Compound 310, 5-((1-(4,5-dichlorothiazol-2-yl)ethyl)amino)-1-methyl-1H-indazole-3-carboxamide] | < 100
9 | Cc1c(Br)cccc1S(=O)(=O)Nc1ccc2cc[nH]c(=O)c2c1 [Compound 191, 3-bromo-2-methyl-N-(1-oxo-1,2-dihydroisoquinolin-7-yl)benzenesulfonamide] | < 100
10 | CC(Nc1ccc2nc[nH]c(=O)c2c1)c1nc(Cl)c(Cl)s1 (centres unmarked) [Compound 202, 6-((1-(4,5-dichlorothiazol-2-yl)ethyl)amino)quinazolin-4(3H)-one] | < 100
11 | CCC(Nc1ccc2nc[nH]c(=O)c2c1)c1nccc(Cl)c1Cl (racemic) [Example 155, 6-((1-(3,4-dichloropyridin-2-yl)propyl)amino)quinazolin-4(3H)-one] | 100 to 500
12 | O=c1[nH]cc(Cl)c2ccc(NS(=O)(=O)c3c(Cl)ccc(Cl)c3Cl)cc12 [Compound 197, 2,3,6-trichloro-N-(4-chloro-1-oxo-1,2-dihydroisoquinolin-7-yl)benzenesulfonamide] | < 100
13 | CC(Nc1ccc2nccc(=O)n2c1)c1cccc(Cl)c1Cl (racemic) [Example 148, 7-((1-(2,3-dichlorophenyl)ethyl)amino)-4H-pyrido[1,2-a]pyrimidin-4-one] | > 1000
14 | CC(Nc1ccc2cc[nH]c(=O)c2c1)c1nn(C2CCC2)c(Cl)c1Cl (centres unmarked) [Compound 322, 7-((1-(4,5-dichloro-1-cyclobutyl-1H-pyrazol-3-yl)ethyl)amino)isoquinolin-1(2H)-one] | < 100
15 | Cc1ccc(S(=O)(=O)Nc2ccc3c(c2)C(=O)NCC3)c(C)c1 [Example 3A, 2,4-dimethyl-N-(1-oxo-1,2,3,4-tetrahydroisoquinolin-7-yl)benzenesulfonamide] | > 1000
16 | CC1(C)CNc2cc(NS(=O)(=O)c3cccc(Cl)c3Cl)ccc21 [Compound 219, 2,3-dichloro-N-(3,3-dimethylindolin-6-yl)benzenesulfonamide] | < 100
17 | Cc1c(Cl)cccc1S(=O)(=O)Nc1ccc2c(c1)C(=O)NCCC2 [Compound 39, 3-chloro-2-methyl-N-(1-oxo-2,3,4,5-tetrahydro-1H-benzo[c]azepin-8-yl)benzenesulfonamide] | < 100
18 | CCC(Nc1ccc2nc[nH]c(=O)c2c1)c1cccc(Cl)c1Cl (racemic) [Example 146, 6-[1-(2,3-dichlorophenyl)propylamino]-3H-quinazolin-4-one] | < 100
19 | Cc1c(F)cccc1S(=O)(=O)Nc1ccc2c(c1)NC(=O)CC2 [Compound 3, 3-fluoro-2-methyl-N-(2-oxo-1,2,3,4-tetrahydroquinolin-7-yl)benzenesulfonamide] | 100 to 500
20 | CC(Nc1ccc2cc[nH]c(=O)c2c1)c1nn(C)c(Cl)c1Cl (racemic) [Compound 256, 7-((1-(4,5-dichloro-1-methyl-1H-pyrazol-3-yl)ethyl)amino)isoquinolin-1(2H)-one] | < 100
21 | CC(Nc1ccc2ccn(Cc3ccccc3)c(=O)c2c1)c1cccc(Cl)c1Cl (racemic) [Example 142, 2-benzyl-7-((1-(2,3-dichlorophenyl)ethyl)amino)isoquinolin-1(2H)-one] | 500 to 1000

Row | SMILES | IC50 [nM]
22 | CC(Nc1cc(F)c2ncn(-c3nc[nH]n3)c(=O)c2c1)c1nc(Cl)c(Cl)s1 (racemic) [Example 359, 6-((1-(4,5-dichlorothiazol-2-yl)ethyl)amino)-8-fluoro-3-(1H-1,2,4-triazol-3-yl)quinazolin-4(3H)-one] | < 100
23 | Cc1n[nH]c(=O)c2cc(NC(CO)c3c(Cl)ccc(F)c3Cl)ccc12 (racemic) [Example 250, 7-[[1-(2,6-dichloro-3-fluoro-phenyl)-2-hydroxy-ethyl]amino]-4-methyl-2H-phthalazin-1-one] | < 100
24 | CC(Nc1cc(F)c2nc[nH]c(=O)c2c1)c1nsc(Cl)c1Cl (racemic) [Compound 338, 6-((1-(4,5-dichloroisothiazol-3-yl)ethyl)amino)-8-fluoroquinazolin-4(3H)-one] | < 100
25 | Cc1n[nH]c(=O)c2cc(NC(C)c3nc(Cl)c(Cl)s3)ccc12 (racemic) [Example 223, 7-((1-(4,5-dichlorothiazol-2-yl)ethyl)amino)-4-methylphthalazin-1(2H)-one] | < 100
26 | Cc1c2ccc(NC(C)c3nc(Cl)c(Cl)s3)cc2nn1CCO (racemic) [Compound 307, 2-(6-((1-(4,5-dichlorothiazol-2-yl)ethyl)amino)-3-methyl-2H-indazol-2-yl)ethan-1-ol] | < 100
27 | Cc1c(Cl)cc(F)cc1S(=O)(=O)Nc1ccc2cc[nH]c(=O)c2c1 [Compound 45, 3-chloro-5-fluoro-2-methyl-N-(1-oxo-1,2-dihydroisoquinolin-7-yl)benzenesulfonamide] | < 100
28 | Cc1ccccc1S(=O)(=O)Nc1ccc2c(c1)C(=O)NCC2 [Compound 9, 2-methyl-N-(1-oxo-1,2,3,4-tetrahydroisoquinolin-7-yl)benzenesulfonamide] | > 1000
29 | Cc1cc(F)cc(C(C#N)Nc2ccc3c(c2)C(=O)NCC3)c1 (centres unmarked) [Example 173, 2-(3-fluoro-5-methylphenyl)-2-((1-oxo-1,2,3,4-tetrahydroisoquinolin-7-yl)amino)acetonitrile] | > 1000
30 | Cc1c2ccc(NC(C)c3nc(Cl)c(Cl)s3)cc2nn1CC(N)=O (single isomer, unassigned) [Compound 312] | < 100
31 | CC(Nc1ccc2c(c1)C(=O)NCC2)c1cccc(Cl)c1Cl (single isomer, unassigned) [Example 111] | < 100
32 | Cc1c2ccc(NC(C)c3snc(Cl)c3Cl)cc2nn1CC(N)=O (single isomer, unassigned) [Compound 341A] | < 100
33 | Cc1n[nH]c(=O)c2cc(NC(C)c3scc(Cl)c3Cl)ccc12 (racemic) [Compound 342, 7-((1-(3,4-dichlorothiophen-2-yl)ethyl)amino)-4-methylphthalazin-1(2H)-one] | < 100
34 | CC1(C)C(=O)Nc2cc(NS(=O)(=O)c3c(Cl)ccc(Cl)c3Cl)ccc21 [Compound 209, 2,3,6-trichloro-N-(3,3-dimethyl-2-oxoindolin-6-yl)benzenesulfonamide] | < 100
35 | CC(Nc1ccc2ccccc2n1)c1cccc(Cl)c1Cl (racemic) [Example 134, N-(1-(2,3-dichlorophenyl)ethyl)quinolin-2-amine] | > 1000
36 | Cc1c2ccc(NC(C)c3nc(Cl)c(Cl)s3)cc2nn1CC(N)=O (single isomer, unassigned) [Compound 312B] | > 1000
37 | CC(Nc1ccc2cc[nH]c(=O)c2c1)c1cc(F)cc(Cl)c1Cl (racemic) [Example 136, 7-((1-(2,3-dichloro-5-fluorophenyl)ethyl)amino)isoquinolin-1(2H)-one] | < 100
38 | CC1(C)CN(C(=O)CC(N)=O)c2cc(NS(=O)(=O)c3cccc(Cl)c3Cl)ccc21 [Compound 299, 3-(6-((2,3-dichlorophenyl)sulfonamido)-3,3-dimethylindolin-1-yl)-3-oxopropanamide] | < 100
39 | Cc1cc(F)ccc1S(=O)(=O)Nc1ccc2c(c1)C(=O)NCC2 [Example 4A, 4-fluoro-2-methyl-N-(1-oxo-1,2,3,4-tetrahydroisoquinolin-7-yl)benzenesulfonamide] | > 1000
40 | NC(=O)c1cccc2ccc(NS(=O)(=O)c3cccc(Cl)c3Cl)cc12 [Compound 87, 7-((2,3-dichlorophenyl)sulfonamido)-1-naphthamide] | 100 to 500
41 | CC(Nc1ccc2c(c1)C(=O)NC2)c1cccc(Cl)c1Cl (racemic) [Example 120, 6-((1-(2,3-dichlorophenyl)ethyl)amino)isoindolin-1-one] | > 1000
